{
  "source": "paper PMC5498006",
  "about": "(Biochemistry, 2016)",
  "molecular_target": "T1, CCL21 (CC chemokine ligand 21), truncated (Homo sapiens, UniProt O00585)",
  "T1 sequence (O00585 24-102)": "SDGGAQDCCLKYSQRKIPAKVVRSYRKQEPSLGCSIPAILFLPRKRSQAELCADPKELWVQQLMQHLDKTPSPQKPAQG",
  "test": "2D 1H-15N HSQC NMR titration",
  "type": "binding",
  "data": [
    {"smiles": "N[C@@H](Cc1ccc(OS(=O)(=O)O)cc1)C(=O)O", "note": "[sY, sulfotyrosine]", "values": [
      {"measurement": "Kd", "result": "~38.9", "unit": "mM"}
    ]}
  ]
}
